As usually defined, the stoichiometry N is a count of units in the complex or per binding partner.

The conditions of experiment [1]: ref Erazo-Oliveras et al., Cell Chem Biol 2016, 23, 598-607; cited from earlier work.
The conditions of experiment [2]: ref Erazo-Oliveras et al., Nat Methods 2014, 11, 861-867; cited from earlier work.
The target in another experiment is dfTAT-ST (2) (HIV). The experiment in a line: covalent SnoopTag/SnoopCatcher ligation followed by SDS-PAGE (in-gel fluorescence, Coomassie) and MALDI-TOF mass spectrometry; SC (40 μM) reacted with 2 (10 μM), or SC (80 μM) with 3 (10 μM), for 1 hour in TBS (20 mM Tris, 150 mM NaCl, pH 7.4); covalent isopeptide bond; products purified by cation exchange chromatography.

Experiment [3] has as its target 3 (disulfide-linked dimer of fTAT-ST) (HIV). The experiment is described as above.

Turning to “CK(TMR)RKKRRQRRR [fTAT, reference compound]”, in experiment [1], the “leakage of liposomes mimicking the lipid composition of late endosomes” value is listed as “does not cause leakage”. Besides, the “endosomal escape of the monomeric form” value in experiment [2] is “does not mediate detectable endosomal escape”.
With SnoopCatcher (SC) (designed binder), the figures for the stoichiometry N (with dfTAT-ST (2) (HIV); in experiment [3]) were 1 copies and 2 copies, respectively.

Values taken from paper PMC10644971 (Bioconjugate chemistry, 2023).
